In US12077503B2, “Substituted cyclic amides and their use as herbicides” (FMC CORPORATION, priority 2015, dated 2024):
Where two headings read alike, the source gives them in different places.

How the values were obtained:
Type in all cases: in vivo
[1] = tested on: pigweed (Amaranthus retroflexus); experiment: Test A preemergence; details: Amaranthus retroflexus, pre-emergence, 240 h, preemergence, read-out: Pigweed plant response rating; for pest or weed control at 125 g/ha: 125 g ai/ha, approx. 10 d; for pest or weed control at 500 g/ha: 500 g ai/ha
[2] = tested on: Galium (catchweed bedstraw, Galium aparine); experiment: Test A postemergence; details: Galium, post-emergence, 240 h, postemergence, read-out: Galium plant response rating; for pest or weed control at 125 g/ha: 125 g ai/ha, visual injury on 0 to 100 scale (0 no effect, 100 complete control), approx. 10 d; for pest or weed control at 500 g/ha: 500 g ai/ha, 0 to 100 scale, 0 is no effect, 100 is complete control
Summary of the method: (§1)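 Preemergence directed soil spray on seeded pots, or postemergence application to plants 2–10 cm, one- to two-leaf. Solvent mixture non-phytotoxic, with surfactant. Scored ~10 d later, visually, 0–100 vs untreated.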

[3] = tested on: Kochia (Kochia scoparia); experiment: Test A postemergence; details: Bassia scoparia, post-emergence, 240 h, postemergence, read-out: Kochia plant response rating; for pest or weed control at 125 g/ha: 125 g ai/ha, visual injury on 0 to 100 scale (0 no effect, 100 complete control), approx. 10 d; for pest or weed control at 500 g/ha: 500 g ai/ha, 0 to 100 scale, 0 is no effect, 100 is complete control
Summary of the method: as §1

[4] = tested on: barnyardgrass (Echinochloa crus-galli); experiment: Test A postemergence; details: Echinochloa crus-galli, post-emergence, 240 h, postemergence, read-out: Barnyardgrass plant response rating; for pest or weed control at 125 g/ha: 125 g ai/ha, visual injury on 0 to 100 scale (0 no effect, 100 complete control), approx. 10 d; for pest or weed control at 500 g/ha: 500 g ai/ha, 0 to 100 scale, 0 is no effect, 100 is complete control
Summary of the method: as §1

[5] = tested on: blackgrass (Alopecurus myosuroides); experiment: Test A postemergence; details: Alopecurus myosuroides, post-emergence, 240 h, postemergence, read-out: Blackgrass plant response rating; for pest or weed control at 125 g/ha: 125 g ai/ha, visual injury on 0 to 100 scale (0 no effect, 100 complete control), approx. 10 d; for pest or weed control at 500 g/ha: 500 g ai/ha, 0 to 100 scale, 0 is no effect, 100 is complete control
Summary of the method: as §1

[6] = tested on: corn (Zea mays); experiment: Test A postemergence; details: Zea mays, post-emergence, 240 h, postemergence, read-out: Corn plant response rating; for plant injury at 125 g/ha: 125 g ai/ha, visual injury on 0 to 100 scale (0 no effect, 100 complete control), approx. 10 d; for plant injury at 500 g/ha: 500 g ai/ha, 0 to 100 scale, 0 is no effect, 100 is complete control
Summary of the method: as §1

[7] = tested on: giant foxtail (Setaria faberii); experiment: Test A postemergence; details: Setaria faberi, post-emergence, 240 h, postemergence, read-out: Foxtail, Giant plant response rating; for pest or weed control at 125 g/ha: 125 g ai/ha, visual injury on 0 to 100 scale (0 no effect, 100 complete control), approx. 10 d; for pest or weed control at 500 g/ha: 500 g ai/ha, 0 to 100 scale, 0 is no effect, 100 is complete control
Summary of the method: as §1

[8] = tested on: pigweed (Amaranthus retroflexus); experiment: Test A postemergence; details: Amaranthus retroflexus, post-emergence, 240 h, postemergence; for pest or weed control at 125 g/ha: 125 g ai/ha; for pest or weed control at 500 g/ha: 500 g ai/ha, 0 to 100 scale, 0 is no effect, 100 is complete control
Summary of the method: as §1

[9] = tested on: ragweed (common ragweed, Ambrosia elatior); experiment: Test A postemergence; details: Ambrosia artemisiifolia, post-emergence, 240 h, postemergence; for pest or weed control at 125 g/ha: 125 g ai/ha; for pest or weed control at 500 g/ha: 500 g ai/ha, 0 to 100 scale, 0 is no effect, 100 is complete control
Summary of the method: as §1

[10] = tested on: ryegrass, Italian (Italian ryegrass, Lolium multiflorum); experiment: Test A postemergence; details: Lolium multiflorum, post-emergence, 240 h, postemergence; for pest or weed control at 125 g/ha: 125 g ai/ha; for pest or weed control at 500 g/ha: 500 g ai/ha, 0 to 100 scale, 0 is no effect, 100 is complete control
Summary of the method: as §1

[11] = tested on: wheat (Triticum aestivum); experiment: Test A postemergence; details: Triticum aestivum, post-emergence, 240 h, postemergence; for plant injury at 125 g/ha: 125 g ai/ha; for plant injury at 500 g/ha: 500 g ai/ha, 0 to 100 scale, 0 is no effect, 100 is complete control
Summary of the method: as §1

[12] = tested on: barnyardgrass (Echinochloa crus-galli); experiment: Test B flooded paddy test; details: Echinochloa crus-galli, 250 g ai/ha, Flood; 0 to 100 scale where 0 is no effect and 100 is complete control; read-out: Barnyardgrass plant response rating
Summary of the method: (§2)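 2-leaf plants; pots flooded 3 cm over soil; cpd added to paddy water; depth held; greenhouse 13–15 d; visual rating vs controls, 0 = no effect, 100 = complete control.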

[13] = tested on: ducksalad (Heteranthera limosa); experiment: Test B flooded paddy test; details: Heteranthera limosa, 250 g ai/ha, Flood; 0 to 100 scale where 0 is no effect and 100 is complete control; read-out: Ducksalad plant response rating
Summary of the method: as §2

[14] = tested on: rice (Oryra sativa); experiment: Test B flooded paddy test; details: Oryza sativa, 250 g ai/ha, Flood; 0 to 100 scale where 0 is no effect and 100 is complete control; read-out: Rice plant response rating
Summary of the method: as §2

[15] = tested on: sedge, umbrella (small-flower umbrella sedge, Cyperus difformis); experiment: Test B flooded paddy test; details: Cyperus difformis, 250 g ai/ha, Flood; 0 to 100 scale where 0 is no effect and 100 is complete control; read-out: Sedge, Umbrella plant response rating
Summary of the method: as §2

[16] = 0 to 100 scale where 0 is no effect and 100 is complete control
[17] = read-out: Pigweed plant response rating
[18] = read-out: Ragweed plant response rating
[19] = read-out: Ryegrass, Italian plant response rating
[20] = read-out: Wheat plant response rating

| Compound | pest or weed control at 125 g/ha [1, 16] | pest or weed control at 125 g/ha [2] | pest or weed control at 500 g/ha [2] | pest or weed control at 125 g/ha [3] | pest or weed control at 500 g/ha [3] | pest or weed control at 125 g/ha [4] | pest or weed control at 500 g/ha [4] | pest or weed control at 125 g/ha [5] | pest or weed control at 500 g/ha [5] | plant injury at 125 g/ha [6] | plant injury at 500 g/ha [6] | pest or weed control at 125 g/ha [7] | pest or weed control at 500 g/ha [7] | pest or weed control at 500 g/ha [8, 17] | pest or weed control at 500 g/ha [9, 18] | pest or weed control at 500 g/ha [10, 19] | plant injury at 500 g/ha [11, 20] | pest or weed control at 250 g/ha [12] | pest or weed control at 250 g/ha [13] | pest or weed control at 250 g/ha [14] | other results |
| --- | --- | --- | --- | --- | --- | --- | --- | --- | --- | --- | --- | --- | --- | --- | --- | --- | --- | --- | --- | --- | --- |
| CN1C[C@H](c2ccc(F)c(F)c2)[C@@H](C(=S)Nc2ccccc2F)C1=O (racemic) [Compound 1153] | 0% | 30% | 40% | 0% | 0% | 90% | 90% | 0% | 30% | 0% | 0% | 60% | 90% | 0% | 0% | 0% | 0% | 30% | 70% | 0% | pest or weed control at 500 g/ha [1, 16]: 0%; pest or weed control at 125 g/ha ([8]; visual injury vs untreated controls after approx. 10 d, 0 = no effect, 100 = complete control, read-out: Pigweed plant response rating (0 to 100 scale)): 0%; pest or weed control at 125 g/ha ([9]; visual injury vs untreated controls after approx. 10 d, 0 = no effect, 100 = complete control, read-out: Ragweed plant response rating (0 to 100 scale)): 0%; pest or weed control at 125 g/ha ([10]; visual injury vs untreated controls after approx. 10 d, 0 = no effect, 100 = complete control, read-out: Ryegrass, Italian plant response rating (0 to 100 scale)): 0%; plant injury at 125 g/ha ([11]; visual injury vs untreated controls after approx. 10 d, 0 = no effect, 100 = complete control, read-out: Wheat plant response rating (0 to 100 scale)): 0%; pest or weed control at 250 g/ha [15]: 0% |
| CN1C[C@H](c2cc(F)cc(F)c2)[C@@H](C(=O)Nc2cnccc2Cl)C1=O [Compound 1096] | 0% | 0% | 0% | 0% | 0% | 0% | 0% | 0% | 0% | 0% | 0% | 0% | 0% | 0% | 0% | 0% | 0% | 0% | 65% | 0% | pest or weed control at 500 g/ha ([1]; visual injury rating about 10 d after treatment, 0 to 100 scale (0 no effect, 100 complete control)): 0%; pest or weed control at 125 g/ha ([8]; visual injury on 0 to 100 scale (0 no effect, 100 complete control), approx. 10 d, read-out: Pigweed plant response rating): 0%; pest or weed control at 125 g/ha ([9]; visual injury on 0 to 100 scale (0 no effect, 100 complete control), approx. 10 d, read-out: Ragweed plant response rating): 0%; pest or weed control at 125 g/ha ([10]; visual injury on 0 to 100 scale (0 no effect, 100 complete control), approx. 10 d, read-out: Ryegrass, Italian plant response rating): 0%; plant injury at 125 g/ha ([11]; visual injury on 0 to 100 scale (0 no effect, 100 complete control), approx. 10 d, read-out: Wheat plant response rating): 0%; pest or weed control at 250 g/ha [15]: 0% |
